The source of these data is patent publication US20200339544A1 (JOINT STOCK COMPANY "BIOCAD", priority 2017, published 2020).

In series [1] the test system is HepG2 cells. Kind of series: General cytotoxicity on HepG2 cells. Format: cell-based. The following applies: therapeutic index, CC50 HepG2 / IC50 H1975. The method, boiled down:
(§1)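 HepG2 cells seeded at 2*10^4 cells per well and compounds added in DMEM with 2% FBS for 72 h at 37 °C. Viability read with Alamar Blue and CC50 derived as for IC50. Therapeutic index taken as HepG2 CC50 over H1975 IC50.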

Series [2] can be described thus: General cytotoxicity on HepG2 cells. Format: cell-based. To be noted: human; general cytotoxicity, HepG2 cells, 72 hours, average of several tests. A digest of the protocol: as §1
Series [3] can be described thus: Chemical stability in simulated gastric fluid (SGF). Format: physicochemical. The following applies: SGF without enzymes, pH 1,4; 10 μm; 2 hours at 37° C.; substance amount remaining. A digest of the protocol:
(§2)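 Compound at 10 μm (diluted from 10 mM DMSO stock) incubated 2 h at 37° C in enzyme-free SGF, pH=1,4, or enzyme-free SIF, pH=6.5. HPLC peak areas before and after incubation give % compound remaining.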

The nature of series [4]: Chemical stability in simulated intestinal fluid (SIF). Format: physicochemical. The following applies: SIF without enzymes, pH 6.5; 10 μm; 2 hours at 37° C.; substance amount remaining. A digest of the protocol: as §2
Series [5] concerns the target T1, WT EGFR (Wild-Type EGFR) (Homo sapiens, UniProt P00533).
T1 construct: purchased SignalChem
Kind of series: Inhibition of WT EGFR kinase activity (ADP-Glo). The class given is biochemical. The method, boiled down: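 Recombinant WT or double-mutant EGFR was incubated with a solution of 0.5 mg/mL peptide substrate and 50 μM ATP for 180 minutes at 37° C. Kinase activity was detected by ADP-Glo luminescence. IC50 values came from a four-parameter logistic fit.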

Series [6] relates to A549 (lung adenocarcinoma, WT). Kind of series: Antiproliferative activity on A549 cells (Alamar Blue). The class given is cell-based. The following applies: Homo sapiens, antiproliferative test. A digest of the protocol: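 Cells seeded at 5*10^3/well in RPMI-1640 with 2% FBS, attached 16-18 h at 37° C, then exposed to compounds (≤1% DMSO) for 72 h. Alamar Blue added for 3-5 h; fluorescence read at 540/590 nm. IC50 from four-parameter logistic fit.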
For orientation: The colour change of resazurin is a common sign of viable cells or microbes.

T1 sequence (P00533 25-1210): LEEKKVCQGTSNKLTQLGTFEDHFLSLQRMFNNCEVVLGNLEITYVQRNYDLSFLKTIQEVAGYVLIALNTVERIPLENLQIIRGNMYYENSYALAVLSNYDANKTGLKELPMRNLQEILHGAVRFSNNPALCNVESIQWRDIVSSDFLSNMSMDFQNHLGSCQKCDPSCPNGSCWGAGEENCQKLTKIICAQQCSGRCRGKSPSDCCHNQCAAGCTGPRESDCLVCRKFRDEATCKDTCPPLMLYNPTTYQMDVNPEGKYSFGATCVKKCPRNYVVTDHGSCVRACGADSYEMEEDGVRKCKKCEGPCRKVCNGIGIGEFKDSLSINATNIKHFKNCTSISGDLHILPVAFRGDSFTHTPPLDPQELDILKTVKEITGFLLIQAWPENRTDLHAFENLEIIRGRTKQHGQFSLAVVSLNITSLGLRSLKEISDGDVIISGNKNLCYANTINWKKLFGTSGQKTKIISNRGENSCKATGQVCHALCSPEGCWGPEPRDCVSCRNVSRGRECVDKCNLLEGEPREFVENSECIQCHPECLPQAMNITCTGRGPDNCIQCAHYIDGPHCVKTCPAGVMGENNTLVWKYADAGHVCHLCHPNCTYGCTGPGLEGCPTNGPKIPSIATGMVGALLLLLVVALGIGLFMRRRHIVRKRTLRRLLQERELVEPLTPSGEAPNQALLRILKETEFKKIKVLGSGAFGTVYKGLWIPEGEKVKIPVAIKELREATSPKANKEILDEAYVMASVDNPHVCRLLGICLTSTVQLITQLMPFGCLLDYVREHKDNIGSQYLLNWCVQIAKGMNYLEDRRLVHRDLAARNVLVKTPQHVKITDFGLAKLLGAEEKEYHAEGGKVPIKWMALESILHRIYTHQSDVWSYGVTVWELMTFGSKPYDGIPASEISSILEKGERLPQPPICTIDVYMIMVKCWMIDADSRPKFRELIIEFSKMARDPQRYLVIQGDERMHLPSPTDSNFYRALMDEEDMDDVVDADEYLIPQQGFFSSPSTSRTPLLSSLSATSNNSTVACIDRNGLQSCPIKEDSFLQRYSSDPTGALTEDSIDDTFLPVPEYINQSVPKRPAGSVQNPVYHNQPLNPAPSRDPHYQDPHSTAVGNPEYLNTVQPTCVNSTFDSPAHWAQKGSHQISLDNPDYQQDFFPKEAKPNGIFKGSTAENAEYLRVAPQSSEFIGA

In the case of `C=CC(=O)Nc1cc(Nc2nccc(C(=O)c3ccc(OCCC)cc3OCCC)n2)c(OC)cc1N(C)CCN(C)C` [EGFR_3365_70, N-(2-((2-(dimethylamino)ethyl)(methyl)amino)-5-((4-(2,4-dipropoxybenzoyl)pyrimidin-2-yl)amino)-4-methoxyphenyl)acrylamide], in series [1], the “TI, CC50/IC50” value came to 56. Moreover, the CC50 at 72 h in series [2] came to 11.5 µM. In series [3], the “Stability in SGF, %” value is on record as 100.0%. Besides, in series [4], the “Stability in SIF, %” value is 98.6%. The figures for the IC50 in series [5] and in series [6] were 0.25 µM and 4.39 µM, respectively.

For the molecule `C=CC(=O)Nc1cc(Nc2nccc(C(=O)c3ccc(N(CC)CC)cc3)n2)c(OC)cc1N(C)CCN(C)C` [EGFR_3365_72, N-(5-((4-(4-(diethylamino)benzoyl)pyrimidin-2-yl)amino)-2-((2-(dimethylamino)ethyl)(methyl)amino)-4-methoxyphenyl)acrylamide], the “TI, CC50/IC50” value in series [1] amounted to 1408. In addition, in series [2], the CC50 at 72 h is 16.2 µM. In addition, the “Stability in SGF, %” value in series [3] is reported as 100.0%. Further, in series [4], the “Stability in SIF, %” value was 91.5%. Further, the figures for the IC50 in series [5] and in series [6] were 0.0559 µM and 10.7 µM, respectively.

Regarding `C=CC(=O)Nc1cc(Nc2nccc(C(=O)c3ccc(N(C)C)cc3)n2)c(OC)cc1N(C)CCN(C)C` [EGFR_3365_73, N-(5-((4-(4-(dimethylamino)benzoyl)pyrimidin-2-yl)amino)-2-((2-(dimethylamino)ethyl) (methyl)amino)-4-methoxyphenyl)acrylamide], the “TI, CC50/IC50” value in series [1] worked out at 3465. In series [2], it took 35.6 µM to reach half-maximal cytotoxicity (CC50 at 72 h). Besides, the “Stability in SGF, %” value in series [3] is reported as 100.0%. Besides, the “Stability in SIF, %” value in series [4] is on record as 100.0%. The figures for the IC50 in series [5] and in series [6] were 0.0327 µM and 16 µM, respectively.

For `C=CC(=O)Nc1cc(Nc2cc(C(=O)c3ccc(-c4cnn(C)c4)cc3)ccn2)c(OC)cc1N(C)CCN(C)C` [EGFR_3365_85, N-(2-((2-(dimethylamino)ethyl)(methyl)amino)-4-methoxy-5-((4-(4-(1-methyl-1H-pyrazol-4-yl)benzoyl)pyridin-2-yl)amino)phenyl) acrylamide], the “TI, CC50/IC50” value in series [1] was 153. Besides, in series [2], the midpoint of cytotoxicity, the CC50 at 72 h, lay at 21.2 µM. Further, in series [3], the “Stability in SGF, %” value is 100.0%. Further, in series [4], the “Stability in SIF, %” value is given as 98.4%. Also, the IC50 in series [5] was determined as 0.06 µM; in series [6], 1.41 µM.

As usually defined, the CC50 is the concentration at which the toxic effect on the cells reaches its halfway point. For orientation: IC50 means the midpoint of a concentration-inhibition curve. Higher therefore signals weaker potency in that assay.
